Measured values: patent publication US10829473B2, “Modulators of the cystic fibrosis transmembrane conductance regulator protein and methods of use” (AbbVie Overseas S.Á.R.L., priority 2017, dated 2020)
Where two headings read alike, the source gives them in different places.

Molecular target: T1, F508delCFTR (Homo sapiens, UniProt P13569, DEL508-508)
T1 construct: expressed in transfected cells; host or cells: CFBE41o- human lung derived epithelial cells (CFBE41o-F508delCFTR-HRP), doxycycline-inducible
Assay: Cell Surface Expression-Horse Radish Peroxidase (CSE-HRP) Assay;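 as to EC50 (with co-corrector): co-corrector chromenyl benzoic acid corrector at 2 or 3 µM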;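 as to Maximum % activity (without co-corrector): % of on-plate positive control chromenyl benzoic acid corrector at 2 or 3 µM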
Format: cell-based
Details: for Maximum % activity (with co-corrector) / Emax: maximum at any tested concentration; for Emax: read-out: Maximum % activity (without co-corrector)
In short: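 Corrector compounds were given as 8-point 3-fold series from 20 or 30 μM, with or without a 2 μM co-corrector, for 18-24 h at 33 °C. Surface HRP was read by luminol luminescence as % of positive control; variable-Hill-slope sigmoidal fitting gave EC50 from triplicate plates.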

[1] = test compound alone, without co-corrector, read-out: EC50 (without co-corrector)
[2] = with co-corrector, read-out: EC50 (with co-corrector)
[3] = test compound with co-corrector
[4] = test compound with co-corrector, read-out: EC50 (with co-corrector)
[5] = test compound without co-corrector
[6] = test compound without co-corrector, read-out: EC50 (without co-corrector)

T1 sequence (P13569 with tags, fused parts or gaps DEL508-508): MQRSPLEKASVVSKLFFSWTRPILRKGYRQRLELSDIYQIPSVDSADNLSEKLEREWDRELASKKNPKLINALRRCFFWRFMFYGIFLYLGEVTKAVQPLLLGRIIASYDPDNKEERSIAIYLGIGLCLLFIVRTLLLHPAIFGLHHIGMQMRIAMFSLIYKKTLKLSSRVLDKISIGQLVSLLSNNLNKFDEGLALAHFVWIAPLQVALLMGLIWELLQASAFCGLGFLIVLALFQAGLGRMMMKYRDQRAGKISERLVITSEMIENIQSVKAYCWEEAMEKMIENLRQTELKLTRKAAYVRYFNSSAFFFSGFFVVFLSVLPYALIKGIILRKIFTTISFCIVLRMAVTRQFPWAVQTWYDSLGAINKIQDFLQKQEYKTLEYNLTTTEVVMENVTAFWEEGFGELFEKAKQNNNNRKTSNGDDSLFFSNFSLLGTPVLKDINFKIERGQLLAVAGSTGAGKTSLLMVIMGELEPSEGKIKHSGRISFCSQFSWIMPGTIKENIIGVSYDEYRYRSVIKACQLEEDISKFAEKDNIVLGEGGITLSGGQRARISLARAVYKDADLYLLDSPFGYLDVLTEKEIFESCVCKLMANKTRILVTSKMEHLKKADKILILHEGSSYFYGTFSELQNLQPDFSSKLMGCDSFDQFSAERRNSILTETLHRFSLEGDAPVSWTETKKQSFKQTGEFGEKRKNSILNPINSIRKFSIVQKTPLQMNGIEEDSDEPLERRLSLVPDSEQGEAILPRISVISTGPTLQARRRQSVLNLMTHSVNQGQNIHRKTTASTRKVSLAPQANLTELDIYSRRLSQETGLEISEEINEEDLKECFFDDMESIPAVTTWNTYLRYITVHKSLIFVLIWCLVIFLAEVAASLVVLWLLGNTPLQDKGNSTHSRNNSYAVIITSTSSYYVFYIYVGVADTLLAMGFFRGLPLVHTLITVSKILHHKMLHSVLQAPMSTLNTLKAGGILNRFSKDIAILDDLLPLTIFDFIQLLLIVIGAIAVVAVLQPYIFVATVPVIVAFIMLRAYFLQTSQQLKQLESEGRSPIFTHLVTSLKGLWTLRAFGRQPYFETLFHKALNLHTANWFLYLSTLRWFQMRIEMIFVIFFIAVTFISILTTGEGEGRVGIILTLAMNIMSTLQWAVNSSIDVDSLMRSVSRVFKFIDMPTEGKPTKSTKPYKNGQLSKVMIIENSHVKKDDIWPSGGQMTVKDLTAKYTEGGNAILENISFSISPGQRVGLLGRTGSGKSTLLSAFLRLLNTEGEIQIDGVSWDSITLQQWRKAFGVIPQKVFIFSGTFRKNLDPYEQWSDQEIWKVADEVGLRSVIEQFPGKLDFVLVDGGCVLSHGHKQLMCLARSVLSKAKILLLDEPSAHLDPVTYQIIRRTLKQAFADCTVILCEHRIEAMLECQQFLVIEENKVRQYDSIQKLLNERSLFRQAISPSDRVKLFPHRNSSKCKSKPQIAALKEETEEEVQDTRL

EC50 [1] [µM] | Maximum % activity (with co-corrector) (with co-corrector) | EC50 [2] [µM] | Emax (without co-corrector) [%] | Maximum % activity (with co-corrector) [3] | EC50 [4] [µM] | Emax [5] [%] | EC50 [6] [µM] | SMILES
> 10 | ++ (≥150 and <350) | > 10 | < 50 |  |  |  |  | Cc1ccccc1S(=O)(=O)NC(=O)C1(c2cccc(Cl)c2)CCCC1 [Example III-83, 1-(3-chlorophenyl)-N-(2-methylbenzene-1-sulfonyl)cyclopentane-1-carboxamide]
3 to 10 | +++ (≥350) | < 3 | > 150 |  |  |  |  | COc1cc(OC(C)C)c(C2(C(=O)NS(=O)(=O)c3cccc4ncccc34)CC2)cn1 [Example GI-17, 1-{6-methoxy-4-[(propan-2-yl)oxy]pyridin-3-yl}-N-(quinoline-5-sulfonyl)cyclopropane-1-carboxamide]
 |  |  |  | ++ (≥150 and <350) | 3 to 10 | 50 to 150 | 3 to 10 | CC(C)Oc1ncccc1C1(C(=O)NS(=O)(=O)c2cccc3c2CCCN3)CC1 [GII-4, 1-{2-[(propan-2-yl)oxy]pyridin-3-yl}-N-(1,2,3,4-tetrahydroquinoline-5-sulfonyl)cyclopropane-1-carboxamide]
3 to 10 | +++ (≥350) | < 3 | > 150 |  |  |  |  | COc1ccc(C2CCC2)cc1C1(C(=O)NS(=O)(=O)c2cccn3nccc23)CCC1 [Example I-23, 1-(5-cyclobutyl-2-methoxyphenyl)-N-(pyrazolo[1,5-a]pyridine-4-sulfonyl)cyclobutane-1-carboxamide]
< 3 | +++ (≥350) | < 3 | > 150 |  |  |  |  | COC[C@@H](C)Oc1ccc(C)cc1C1(C(=O)NS(=O)(=O)c2cccc3nc(C)ccc23)CC1 [Example I-107, 1-(2-{[(2R)-1-methoxypropan-2-yl]oxy}-5-methylphenyl)-N-(2-methylquinoline-5-sulfonyl)cyclopropane-1-carboxamide]
 |  |  |  | ++ (≥150 and <350) | > 10 | 50 to 150 | > 10 | CCc1cnc(N2CCOCC2)c(C2(C(=O)NS(=O)(=O)c3cccc4ncccc34)CC2)c1 [GIII-23]
 |  |  |  | ++ (≥150 and <350) | 3 to 10 | < 50 | 3 to 10 | CCc1ncc(OC)cc1C1(C(=O)NS(=O)(=O)c2cccc3ncccc23)CC1 [GII-17, 1-(2-ethyl-5-methoxypyridin-3-yl)-N-(quinoline-5-sulfonyl)cyclopropane-1-carboxamide]
